Assay type in all cases: physicochemical
A short description of data set [1]: Solubility in water at 20° C. On the procedure: Solubility in water at 20° C. of the sulfobetaines of examples 2, 3, 5 and 7 (Table I).
A short description of data set [2]: Measurement of the critical micellar concentration (CMC) by surface tension (tensiometer, water/SA-ambient air interface). The conditions noted are these: permuted water; for CMC: room temperature of 20° C.; for Surface tension: water/SA-ambient air interface, 20° C., Table II beside CMC. On the procedure: Measurement of the critical micellar concentration (CMC) of the sulfobetaines of examples 2, 3, 5, and 7.
Preparation of solutions for the measurements of CMC values.
The method is a standard method using solutions of initial surfactant (SA) concentration of 0.5 g/l, in freshly permuted water, at room temperature of 20° C. The SA-water mixture is stirred up to complete dissolution and then a series of titrated solutions are obtained by successive dilution, by withdrawing a determined volume of mother-solution, brought each time to a standard volume i.e. 1 ml+39 ml; 2 ml+38 ml; 3 ml+37 ml; . . . The various solutions are stirred for 30 minutes and maintained at rest for 2 hours. The surface tensions are measured by means of a tensiometer Tensiomat n^3 Prolabo whose operating principle consists of measuring the pullout load of a stirrup piece placed at the water/SA-ambient air interface, expressed in millinewton/meter.
The CMC value corresponds to the inflection point of the obtained two straight lines.

Data set [3] can be described thus: Micro-emulsion test: determination of optimum solubility and optimum salt content parameters. As to conditions: pentanol as cosurfactant, dodecane as oil; brine NaCl/CaCl2 9/1. From the text:
Micro-emulsion test: Determination of optimum solubility and optimum salt content parameters.
The surface-active properties have been determined by analysis of the behaviour of sulfobetaines in a mixture defined according to standard conditions:
brine (NaCl, CaCl2 with (NaCl/CaCl2)=(9/1): 4.5 g
Depending on the salt content of the brine (0-200 g/l), three mono-, di- or triphasic systems can be observed when the product has surface-active properties:
(1) the behavior referred to as Windsor I, wherein an equilibrium is observed between oil phase and με phase*.
(2) a behavior referred to as Windsor II, wherein an equilibrium is observed between με phase and aqueous phase.
(3) and, finally, a so-called Windsor III systems, wherein the intermediary με phase is in equilibrium with a supernatant oil phase and an aqueous phase.
The latter system has the pecularity of very low interfacial tensions. […] The optimum solubility and optimum salinity parameters, corresponding to equal amounts of water and oil in the micro-emulsion, are defined in this system.
By way of example, for sulfobetaine: [drawing 25] the following parameters have been obtained with pentanol as cosurfactant and dodecane as oil: […]

SMILES strings stand for the structures.

Broadly, the solubility is the concentration that dissolves in the medium under given conditions. A low value points to a poorly soluble substance. With `CCCCCCCCCCCCCCCCCC[N+](C)(C)CCCN(CCCCS(=O)(=O)[O-])C(C)=O` [Example 7, 5-acetyl-5-aza-8 (N,N-dimethylstearylammonium)octane sulfonate], the solubility in data set [1] was 4 mg/mL. For the same molecule, in data set [2], the CMC amounted to 0.0028 g/L and the Surface tension came to 39 mN/m.

For the molecule `CCCCCCCCCCCCCCCCCC[N+](C)(C)CCN(CCCS(=O)(=O)[O-])C(C)=O` [Example 3, 4-acetyl-4-aza-6 (N,N-dimethyl stearylammonium) hexane sulfonate], the solubility in data set [1] came out at 80 mg/mL. In data set [2], this molecule had a CMC of 0.01 g/L and a Surface tension of 35 mN/m.

Regarding `CCCCCCCCCCCCCCCCCC[N+](C)(C)CCN(CCCS(=O)(=O)[O-])C(C)=O` [drawing 25], in data set [3], the optimum salinity parameter is 30 g/L and the optimum solubility parameter came out at 55%.

Consider `CCCCCCCCCCCC[N+](C)(C)CCCN(CCCS(=O)(=O)[O-])C(C)=O` [Example 5, 4-acetyl-4-aza-7 (N,N-dimethyl laurylammonium)heptane sulfonate], for which the solubility in data set [1] came to 300 mg/mL. In data set [2], this molecule displayed a CMC of 0.15 g/L and a Surface tension of 49 mN/m.

Molecule `CCCCCCCCCCCC[N+](C)(C)CCN(CCCS(=O)(=O)[O-])C(C)=O` [Example 2, 4-acetyl-4-aza-6(N,N-dimethyl-laurylammonium)hexane sulfonate] registered a solubility in data set [1] of 300 mg/mL. In data set [2], this molecule came in with a CMC of 0.04 g/L and a Surface tension of 54 mN/m.

(Values after patent publication US4704229A, “Surface-active compounds of the sulfobetaines family, their manufacture and use, particularly for enhanced oil recovery” (Institut Francais du Petrole, priority 1984, dated 1987).)
